Tests used:
[1] = target: AP2-associated protein kinase 1 (Homo sapiens) (UniProt Q2M2I8)
[2] = target: Serine/threonine-protein kinase PAK 1 (Homo sapiens) (UniProt Q13153)
[3] = target: Tyrosine-protein kinase Fes/Fps (Homo sapiens) (UniProt P07332)
[4] = target: T1, Serine/threonine-protein kinase D1 (Homo sapiens) (UniProt Q15139)
T1 sequence (whole entry): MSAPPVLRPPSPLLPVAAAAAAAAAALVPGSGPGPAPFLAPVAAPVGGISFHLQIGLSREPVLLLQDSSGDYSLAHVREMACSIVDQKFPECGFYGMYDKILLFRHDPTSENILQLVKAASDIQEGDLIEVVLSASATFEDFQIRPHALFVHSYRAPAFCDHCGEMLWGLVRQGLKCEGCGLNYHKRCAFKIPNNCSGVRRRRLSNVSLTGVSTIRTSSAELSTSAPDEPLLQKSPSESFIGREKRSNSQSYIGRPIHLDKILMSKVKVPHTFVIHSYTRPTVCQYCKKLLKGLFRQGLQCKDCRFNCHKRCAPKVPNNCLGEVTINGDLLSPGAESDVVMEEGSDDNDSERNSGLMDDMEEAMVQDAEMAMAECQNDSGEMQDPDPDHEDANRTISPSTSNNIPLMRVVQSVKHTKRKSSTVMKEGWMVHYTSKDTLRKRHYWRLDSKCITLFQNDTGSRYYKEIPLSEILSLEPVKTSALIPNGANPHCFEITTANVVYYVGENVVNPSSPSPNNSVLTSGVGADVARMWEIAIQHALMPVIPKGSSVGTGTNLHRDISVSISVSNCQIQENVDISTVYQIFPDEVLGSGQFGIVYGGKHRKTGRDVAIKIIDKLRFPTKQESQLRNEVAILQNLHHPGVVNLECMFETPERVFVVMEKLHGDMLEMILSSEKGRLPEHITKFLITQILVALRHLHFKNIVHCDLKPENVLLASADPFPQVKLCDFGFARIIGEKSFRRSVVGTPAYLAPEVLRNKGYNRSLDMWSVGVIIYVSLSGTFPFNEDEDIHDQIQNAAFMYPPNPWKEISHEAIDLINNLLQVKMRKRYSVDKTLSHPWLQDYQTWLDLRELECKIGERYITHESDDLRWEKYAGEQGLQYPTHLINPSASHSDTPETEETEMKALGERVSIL

[5] = target: Activin receptor type-1-like (Homo sapiens) (UniProt P37023)
[6] = target: Serine/threonine-protein kinase Chk2 (Homo sapiens) (UniProt O96017)
[7] = target: MAP/microtubule affinity-regulating kinase 3 (Homo sapiens) (UniProt P27448)
[8] = target: Calcium-dependent protein kinase 1 (Plasmodium falciparum) (UniProt P62344)
[9] = target: T2, Protein kinase C iota type (Homo sapiens) (UniProt P41743)
T2 sequence (whole entry): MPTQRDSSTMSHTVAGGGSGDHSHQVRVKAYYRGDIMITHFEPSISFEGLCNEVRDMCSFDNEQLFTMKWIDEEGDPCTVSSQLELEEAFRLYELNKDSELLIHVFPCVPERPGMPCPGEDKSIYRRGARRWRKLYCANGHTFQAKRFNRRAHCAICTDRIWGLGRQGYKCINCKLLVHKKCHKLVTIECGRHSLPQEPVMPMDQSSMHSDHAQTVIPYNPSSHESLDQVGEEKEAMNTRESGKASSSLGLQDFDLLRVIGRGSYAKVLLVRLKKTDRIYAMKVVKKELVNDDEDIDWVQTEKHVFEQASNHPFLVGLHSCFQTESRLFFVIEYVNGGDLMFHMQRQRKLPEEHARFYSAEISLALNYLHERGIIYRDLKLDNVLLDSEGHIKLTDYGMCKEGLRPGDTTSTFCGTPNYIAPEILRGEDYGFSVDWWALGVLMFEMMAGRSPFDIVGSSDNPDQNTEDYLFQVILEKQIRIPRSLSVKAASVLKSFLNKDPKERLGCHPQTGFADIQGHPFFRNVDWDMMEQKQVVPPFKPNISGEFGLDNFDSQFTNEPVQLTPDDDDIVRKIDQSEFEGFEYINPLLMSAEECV

[10] = system: Tyrosine-protein kinase ABL1 (Homo sapiens), P00519 [T315I]
[11] = target: 5'-AMP-activated protein kinase catalytic subunit alpha-2 (Homo sapiens) (UniProt P54646)
[12] = Compound concentration 1000.0 nM
[13] = Compound concentration 100.0 nM

Measured: residual activity

Sequence of Activin receptor type-1-like (Homo sapiens) (P37023 whole entry): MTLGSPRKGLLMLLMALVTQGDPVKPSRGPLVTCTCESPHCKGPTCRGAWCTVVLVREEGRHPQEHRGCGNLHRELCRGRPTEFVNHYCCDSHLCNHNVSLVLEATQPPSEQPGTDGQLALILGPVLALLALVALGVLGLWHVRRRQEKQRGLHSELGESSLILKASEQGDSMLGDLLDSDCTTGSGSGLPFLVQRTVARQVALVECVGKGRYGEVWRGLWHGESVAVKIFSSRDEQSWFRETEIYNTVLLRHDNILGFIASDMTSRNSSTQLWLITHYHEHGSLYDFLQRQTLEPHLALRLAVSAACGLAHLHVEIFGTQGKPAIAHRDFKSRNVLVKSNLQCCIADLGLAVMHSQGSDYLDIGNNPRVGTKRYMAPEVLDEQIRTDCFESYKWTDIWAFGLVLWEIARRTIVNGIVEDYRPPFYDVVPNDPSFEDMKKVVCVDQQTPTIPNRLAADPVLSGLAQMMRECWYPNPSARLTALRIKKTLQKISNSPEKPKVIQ
Sequence of AP2-associated protein kinase 1 (Homo sapiens) (Q2M2I8 whole entry, looked up): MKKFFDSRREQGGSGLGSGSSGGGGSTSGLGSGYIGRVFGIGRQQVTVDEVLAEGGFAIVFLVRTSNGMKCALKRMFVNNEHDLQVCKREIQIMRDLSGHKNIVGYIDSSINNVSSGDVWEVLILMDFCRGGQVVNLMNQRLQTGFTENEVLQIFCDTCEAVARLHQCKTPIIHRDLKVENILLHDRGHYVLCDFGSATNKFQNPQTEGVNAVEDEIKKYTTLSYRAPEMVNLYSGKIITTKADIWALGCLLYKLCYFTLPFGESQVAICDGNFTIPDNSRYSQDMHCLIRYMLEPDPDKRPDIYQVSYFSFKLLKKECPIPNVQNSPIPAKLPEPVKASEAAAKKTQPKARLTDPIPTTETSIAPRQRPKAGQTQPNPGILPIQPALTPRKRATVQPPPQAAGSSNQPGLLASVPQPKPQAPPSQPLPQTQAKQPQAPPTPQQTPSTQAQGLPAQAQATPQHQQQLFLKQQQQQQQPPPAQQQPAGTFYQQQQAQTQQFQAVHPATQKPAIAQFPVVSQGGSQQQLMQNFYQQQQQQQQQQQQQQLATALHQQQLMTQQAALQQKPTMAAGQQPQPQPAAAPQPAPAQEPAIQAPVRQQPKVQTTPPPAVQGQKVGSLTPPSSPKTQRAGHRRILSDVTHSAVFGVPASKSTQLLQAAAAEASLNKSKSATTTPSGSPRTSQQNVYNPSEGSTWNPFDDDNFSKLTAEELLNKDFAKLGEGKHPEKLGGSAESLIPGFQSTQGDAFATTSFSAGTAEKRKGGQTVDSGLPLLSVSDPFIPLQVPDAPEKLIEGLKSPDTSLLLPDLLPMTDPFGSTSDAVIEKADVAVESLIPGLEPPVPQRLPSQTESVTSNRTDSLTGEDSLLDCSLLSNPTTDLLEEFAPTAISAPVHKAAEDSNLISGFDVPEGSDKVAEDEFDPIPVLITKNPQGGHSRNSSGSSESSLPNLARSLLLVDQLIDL
Sequence of Tyrosine-protein kinase Fes/Fps (Homo sapiens) (P07332 whole entry): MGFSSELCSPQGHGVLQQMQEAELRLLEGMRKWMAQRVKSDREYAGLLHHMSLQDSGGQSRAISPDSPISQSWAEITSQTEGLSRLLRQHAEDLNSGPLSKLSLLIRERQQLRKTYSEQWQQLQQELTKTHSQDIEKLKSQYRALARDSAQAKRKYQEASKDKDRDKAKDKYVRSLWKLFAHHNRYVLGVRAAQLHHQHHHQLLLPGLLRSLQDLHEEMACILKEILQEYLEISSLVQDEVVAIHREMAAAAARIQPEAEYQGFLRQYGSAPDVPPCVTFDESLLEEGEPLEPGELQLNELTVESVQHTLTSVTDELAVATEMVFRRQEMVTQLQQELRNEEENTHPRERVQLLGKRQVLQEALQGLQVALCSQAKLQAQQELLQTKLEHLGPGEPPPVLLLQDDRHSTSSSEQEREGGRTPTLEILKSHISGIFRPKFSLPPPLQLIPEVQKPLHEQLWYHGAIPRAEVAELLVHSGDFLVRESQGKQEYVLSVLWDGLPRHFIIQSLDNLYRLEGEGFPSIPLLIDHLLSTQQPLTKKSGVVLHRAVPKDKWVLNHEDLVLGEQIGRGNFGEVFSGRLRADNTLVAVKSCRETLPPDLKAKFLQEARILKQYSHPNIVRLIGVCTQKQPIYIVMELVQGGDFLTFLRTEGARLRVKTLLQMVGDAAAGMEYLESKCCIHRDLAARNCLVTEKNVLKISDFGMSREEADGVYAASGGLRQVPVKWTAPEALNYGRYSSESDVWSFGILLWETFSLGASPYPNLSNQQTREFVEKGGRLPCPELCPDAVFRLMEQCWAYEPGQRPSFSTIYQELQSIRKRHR
Sequence of Calcium-dependent protein kinase 1 (Plasmodium falciparum) (P62344 2-524 limits assumed): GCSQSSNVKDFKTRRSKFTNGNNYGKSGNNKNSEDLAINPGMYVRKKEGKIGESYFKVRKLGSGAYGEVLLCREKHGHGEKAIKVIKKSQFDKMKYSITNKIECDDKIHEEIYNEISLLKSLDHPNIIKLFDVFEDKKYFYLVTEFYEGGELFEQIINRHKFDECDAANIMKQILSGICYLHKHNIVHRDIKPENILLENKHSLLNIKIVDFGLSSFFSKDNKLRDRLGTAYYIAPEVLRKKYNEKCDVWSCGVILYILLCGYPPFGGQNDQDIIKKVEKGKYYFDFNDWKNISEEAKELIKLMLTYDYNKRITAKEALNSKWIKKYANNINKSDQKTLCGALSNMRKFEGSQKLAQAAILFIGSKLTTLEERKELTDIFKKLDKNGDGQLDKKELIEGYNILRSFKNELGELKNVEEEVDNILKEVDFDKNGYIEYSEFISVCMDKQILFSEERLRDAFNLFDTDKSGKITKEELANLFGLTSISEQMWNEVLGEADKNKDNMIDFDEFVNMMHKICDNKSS
Sequence of Serine/threonine-protein kinase PAK 1 (Homo sapiens) (Q13153 whole entry): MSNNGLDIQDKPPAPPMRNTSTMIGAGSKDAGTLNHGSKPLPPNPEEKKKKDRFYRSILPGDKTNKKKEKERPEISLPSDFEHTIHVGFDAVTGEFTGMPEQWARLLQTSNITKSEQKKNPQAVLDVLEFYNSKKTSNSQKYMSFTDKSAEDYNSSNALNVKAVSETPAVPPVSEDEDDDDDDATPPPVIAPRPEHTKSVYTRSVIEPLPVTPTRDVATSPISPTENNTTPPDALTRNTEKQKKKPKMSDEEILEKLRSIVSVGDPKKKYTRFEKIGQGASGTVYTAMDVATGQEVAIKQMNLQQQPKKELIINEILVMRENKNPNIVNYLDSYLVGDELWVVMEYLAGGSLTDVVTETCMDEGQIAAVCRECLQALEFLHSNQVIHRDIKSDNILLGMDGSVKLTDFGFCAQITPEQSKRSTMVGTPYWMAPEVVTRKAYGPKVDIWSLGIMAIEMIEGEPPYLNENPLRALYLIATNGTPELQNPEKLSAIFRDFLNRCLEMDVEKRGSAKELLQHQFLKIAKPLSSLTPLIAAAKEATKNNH
Sequence of MAP/microtubule affinity-regulating kinase 3 (Homo sapiens) (P27448 whole entry, looked up): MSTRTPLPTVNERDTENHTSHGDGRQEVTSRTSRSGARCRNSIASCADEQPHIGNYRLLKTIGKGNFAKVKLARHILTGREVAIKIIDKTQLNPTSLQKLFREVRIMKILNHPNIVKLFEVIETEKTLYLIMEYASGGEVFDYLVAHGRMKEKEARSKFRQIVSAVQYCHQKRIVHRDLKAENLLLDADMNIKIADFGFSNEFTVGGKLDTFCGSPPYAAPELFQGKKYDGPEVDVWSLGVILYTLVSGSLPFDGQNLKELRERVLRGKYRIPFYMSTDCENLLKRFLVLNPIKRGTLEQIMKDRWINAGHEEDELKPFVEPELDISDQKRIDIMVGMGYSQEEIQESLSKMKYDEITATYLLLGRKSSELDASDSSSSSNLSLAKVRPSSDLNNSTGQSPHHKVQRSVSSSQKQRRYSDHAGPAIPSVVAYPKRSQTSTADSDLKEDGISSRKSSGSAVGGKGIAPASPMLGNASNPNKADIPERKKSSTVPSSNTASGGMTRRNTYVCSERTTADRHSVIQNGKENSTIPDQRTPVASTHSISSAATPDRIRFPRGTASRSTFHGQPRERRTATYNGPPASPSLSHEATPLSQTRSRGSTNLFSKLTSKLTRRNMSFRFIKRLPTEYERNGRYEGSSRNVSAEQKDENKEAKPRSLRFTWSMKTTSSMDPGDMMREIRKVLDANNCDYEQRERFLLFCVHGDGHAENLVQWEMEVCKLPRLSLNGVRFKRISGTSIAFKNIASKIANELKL
Sequence of 5'-AMP-activated protein kinase catalytic subunit alpha-2 (Homo sapiens) (P54646 whole entry, looked up): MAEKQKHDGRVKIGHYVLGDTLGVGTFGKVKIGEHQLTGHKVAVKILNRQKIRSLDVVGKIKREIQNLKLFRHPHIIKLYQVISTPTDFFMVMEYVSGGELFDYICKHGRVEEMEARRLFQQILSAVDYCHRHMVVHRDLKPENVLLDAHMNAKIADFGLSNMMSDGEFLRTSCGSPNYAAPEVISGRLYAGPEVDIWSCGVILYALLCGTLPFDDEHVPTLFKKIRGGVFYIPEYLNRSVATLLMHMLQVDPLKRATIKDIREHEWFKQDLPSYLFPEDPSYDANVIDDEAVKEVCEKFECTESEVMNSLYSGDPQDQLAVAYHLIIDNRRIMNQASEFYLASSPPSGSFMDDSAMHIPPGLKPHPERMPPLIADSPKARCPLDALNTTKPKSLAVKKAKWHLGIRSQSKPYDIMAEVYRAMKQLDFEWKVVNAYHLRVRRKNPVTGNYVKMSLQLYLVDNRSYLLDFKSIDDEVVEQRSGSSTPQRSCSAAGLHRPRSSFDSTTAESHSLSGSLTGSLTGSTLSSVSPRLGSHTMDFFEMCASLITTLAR

C[C@@H]1CN(c2cc(-c3nn(C)c4ccc(OC5(C)CC5)cc34)ncn2)C[C@H](C)O1 [MLi-2-NC]
inactive: [1]; [12] 84% | [2]; [12] 76% | [3]; [12] 93% | [4]; [12] 82% | [5]; [12] 63% | [6]; [12] 97% | [7]; [12] 100% | [8]; [12] 83% | [9]; [12] 100% | [10]; [12] 74% | [11]; [12] 100%

C[C@@H]1CN(c2cc(-c3n[nH]c4ccc(OC5(C)CC5)cc34)ncn2)C[C@H](C)O1 [MLi-2]
inactive: [1]; [13] 100% | [2]; [13] 97% | [3]; [13] 87% | [4]; [13] 84% | [5]; [13] 94% | [6]; [13] 68% | [7]; [13] 73% | [8]; [13] 94% | [9]; [13] 80% | [10]; [13] 86% | [11]; [13] 100%

Reference: ChEMBL document CHEMBL4507291 (2021)
